Experimental data as given in patent US20220220135A1 (BAR-ILAN UNIVERSITY, priority 2019, published 2022).

Legend:
[1] = target: T1, NTPDase1 (Homo sapiens, UniProt P49961); assay: Inhibition of ATPase activity of human NTPDase1; format: biochemical; conditions: analogue at 100 μM; ATP 100 μM as substrate
T1 sequence (P49961 1-510): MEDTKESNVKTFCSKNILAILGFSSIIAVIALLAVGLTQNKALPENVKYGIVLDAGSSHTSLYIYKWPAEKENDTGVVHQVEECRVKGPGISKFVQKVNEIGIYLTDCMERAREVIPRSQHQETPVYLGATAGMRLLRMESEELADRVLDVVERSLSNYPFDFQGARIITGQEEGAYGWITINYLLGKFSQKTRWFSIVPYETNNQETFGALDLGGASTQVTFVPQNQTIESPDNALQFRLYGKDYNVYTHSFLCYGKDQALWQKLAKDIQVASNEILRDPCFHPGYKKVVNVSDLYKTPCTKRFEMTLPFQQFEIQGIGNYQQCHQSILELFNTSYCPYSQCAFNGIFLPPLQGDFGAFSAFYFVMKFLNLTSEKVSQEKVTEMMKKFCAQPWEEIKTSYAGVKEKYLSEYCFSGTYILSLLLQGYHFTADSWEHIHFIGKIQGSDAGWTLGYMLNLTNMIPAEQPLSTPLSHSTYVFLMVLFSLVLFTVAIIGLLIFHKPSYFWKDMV
Description: (§1) FIG. 2: Inhibition of NTPDases and NPPs by analogues 9-12 using as substrates ATP (100 μM) for NTPDase1,2,3,8 and pNP-TMP (100 μM) for NPP1,3 (Panel A); and ATP (100 μM) was used as the substrate for NPP1 (Panel B);
(§2) At least 2 independent experiments were performed. In panel A, the activity with 100 μM ATP was set as 100%, which was 287±31, 395±67, 278±22, 119±26 nmol of Pi·min−1·mg of protein−1 for human NTPDase1, -2, -3 and -8, respectively, and the activity with 100 μM pNP-TMP was set as 100% which was 67±5, 21±1 nmol of p-nitrophenol·min−1·mg of protein−1 for human NPP1 and NPP3, respectively. In panel B, the activity with 100 μM ATP was set as 100% which was 34±7 nmol of PPi·min−1·mg of protein−1 for NPP1.

[2] = target: T2, NTPDase8 (Homo sapiens, UniProt Q5MY95); assay: Inhibition of ATPase activity of human NTPDase8; format: biochemical; conditions: analogue at 100 μM; ATP 100 μM as substrate
T2 sequence (Q5MY95 1-495): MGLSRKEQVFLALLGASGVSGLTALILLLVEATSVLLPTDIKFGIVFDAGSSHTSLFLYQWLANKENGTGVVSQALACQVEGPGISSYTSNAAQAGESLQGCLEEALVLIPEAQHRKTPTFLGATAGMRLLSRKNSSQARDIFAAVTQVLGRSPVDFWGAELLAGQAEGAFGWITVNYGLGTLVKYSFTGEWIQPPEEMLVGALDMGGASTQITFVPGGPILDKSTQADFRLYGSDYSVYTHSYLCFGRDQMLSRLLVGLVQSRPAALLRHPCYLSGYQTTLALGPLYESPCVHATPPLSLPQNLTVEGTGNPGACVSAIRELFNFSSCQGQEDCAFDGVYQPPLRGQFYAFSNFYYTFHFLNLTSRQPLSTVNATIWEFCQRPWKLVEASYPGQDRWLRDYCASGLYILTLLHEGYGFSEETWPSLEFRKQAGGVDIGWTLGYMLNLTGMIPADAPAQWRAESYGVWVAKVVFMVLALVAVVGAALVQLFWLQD
Description: as §1, §2

[3] = target: T3, NTPDase3 (Homo sapiens, UniProt O75355); assay: Inhibition of ATPase activity of human NTPDase3; format: biochemical; conditions: analogue at 100 μM; ATP 100 μM as substrate
T3 sequence (O75355 1-529): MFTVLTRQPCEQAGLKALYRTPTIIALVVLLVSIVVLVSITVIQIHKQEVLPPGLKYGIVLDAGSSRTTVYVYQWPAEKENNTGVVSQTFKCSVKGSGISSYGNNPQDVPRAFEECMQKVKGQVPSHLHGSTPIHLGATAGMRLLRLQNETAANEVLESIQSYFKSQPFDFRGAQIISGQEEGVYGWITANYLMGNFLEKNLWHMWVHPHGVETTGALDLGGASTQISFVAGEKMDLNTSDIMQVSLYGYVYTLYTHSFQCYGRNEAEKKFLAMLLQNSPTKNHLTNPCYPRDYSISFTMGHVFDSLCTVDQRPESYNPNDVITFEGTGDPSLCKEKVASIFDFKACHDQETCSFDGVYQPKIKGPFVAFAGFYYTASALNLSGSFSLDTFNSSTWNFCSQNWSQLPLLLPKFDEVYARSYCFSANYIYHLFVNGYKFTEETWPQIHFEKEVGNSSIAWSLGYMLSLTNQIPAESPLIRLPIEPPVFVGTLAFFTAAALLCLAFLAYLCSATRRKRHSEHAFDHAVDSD
Description: as §1, §2

[4] = Chemical stability under acidic and basic conditions by 31P-NMR
Description: To evaluate the chemical stability of uridine-5′-Pα,α-dithiophosphate analogues, we measured by 31P-NMR the time-dependent percentage of the analogues remaining under basic and acidic conditions, and due to air-oxidation.

[5] = target: T4, human NPP3 (Homo sapiens, UniProt O14638); assay: Inhibition of human NPP3, pNP-TMP as substrate (analogues 9-12); format: biochemical; conditions: analogue at 100 μM; pNP-TMP 100 μM as substrate
T4 sequence (O14638 1-875): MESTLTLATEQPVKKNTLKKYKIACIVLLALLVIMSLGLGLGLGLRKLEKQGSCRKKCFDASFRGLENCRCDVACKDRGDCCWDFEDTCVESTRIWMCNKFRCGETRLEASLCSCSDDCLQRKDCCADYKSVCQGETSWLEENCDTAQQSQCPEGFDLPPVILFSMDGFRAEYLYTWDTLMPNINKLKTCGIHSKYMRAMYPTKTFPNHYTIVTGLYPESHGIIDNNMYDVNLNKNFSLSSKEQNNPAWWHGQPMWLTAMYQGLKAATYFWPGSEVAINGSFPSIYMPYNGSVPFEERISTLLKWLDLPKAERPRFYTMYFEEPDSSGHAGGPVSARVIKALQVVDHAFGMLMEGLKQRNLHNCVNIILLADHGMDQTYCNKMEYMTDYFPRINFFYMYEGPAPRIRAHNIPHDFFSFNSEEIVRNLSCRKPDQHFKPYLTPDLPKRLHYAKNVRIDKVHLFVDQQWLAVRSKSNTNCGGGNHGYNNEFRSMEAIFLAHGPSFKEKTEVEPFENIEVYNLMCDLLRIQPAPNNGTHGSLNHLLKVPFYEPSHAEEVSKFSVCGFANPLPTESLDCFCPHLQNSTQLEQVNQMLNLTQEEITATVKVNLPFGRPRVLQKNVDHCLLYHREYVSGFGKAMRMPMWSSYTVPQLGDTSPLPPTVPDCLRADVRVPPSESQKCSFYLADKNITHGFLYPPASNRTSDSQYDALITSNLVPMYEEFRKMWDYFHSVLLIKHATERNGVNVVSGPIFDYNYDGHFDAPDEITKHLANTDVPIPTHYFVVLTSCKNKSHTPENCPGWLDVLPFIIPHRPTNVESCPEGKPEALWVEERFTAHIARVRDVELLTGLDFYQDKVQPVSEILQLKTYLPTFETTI
Description: as §1, §2

SMILES	inhibition of human NTPDase1 [1]	inhibition of human NTPDase8 [2]	inhibition of human NTPDase3 [3]	decomposition ([4]; basic, pD 12.1, after 25 days)	decomposition of starting material ([4]; pD 2.1 (pH 1.7), RT, 23 days)	inhibition of human NPP3 [5]	inhibition at 100 µM [3]	loss of compound ([4]; basic, pD 12.6, after 16 days)	decomposition ([4]; pD 1.8 (pH 1.4), 16 days, RT)	inhibition at 100 µM [5]	decomposition ([4]; pD 2.1, after 25 days)
O=c1ccn([C@@H]2O[C@H](COP(=S)(S)OP(=O)(O)OP(=O)(O)O)[C@@H](O)[C@H]2O)c(=O)[nH]1 (stereo partly drawn) [Analogue 10]	no inhibition	no inhibition	no inhibition	24%	15%	no inhibition					
O=c1ccn([C@@H]2O[C@H](COP(=S)(S)OP(=O)(O)OP(=O)(O)OP(=S)(S)OC[C@H]3O[C@@H](n4ccc(=O)[nH]c4=O)[C@H](O)[C@@H]3O)[C@@H](O)[C@H]2O)c(=O)[nH]1 (stereo partly drawn) [Analogue 12]	selective to NPP1	selective to NPP1					24%	13%	6%	27%	
O=c1ccn([C@@H]2O[C@H](COP(=S)(S)OP(=O)(O)CP(=O)(O)O)[C@@H](O)[C@H]2O)c(=O)[nH]1 (stereo partly drawn) [Analogue 11]	negligible effects	negligible effects	negligible effects	23%						21%	6%
